“And” between values parts separate entries of the source, which are not always exact repeats. Equal values may be shown once.
How the values were obtained:
[1] = tested on: model of peripheral mononeuropathy (Bennett model) in rats; assay: Chronic constriction injury (Bennett model) of peripheral mononeuropathy, paw pressure test; format: in vivo
[2] = tested on: patients with nociceptive or neuropathic pain; assay: Patient examples 1-5: oral AV1066, patient-reported pain control; format: in vivo, human; settings: Example 1, bone fracture pain (nociceptive), oral 5 mg/kg/day, days 3, 7, 16, 28
Procedure: A patient or subject (the terms are used interchangeably) presents with a fractured collar bone arising from a bicycling accident. They are complaining of significant shoulder pain. The patient's pain is classified according to the
International Association for the Study of Pain as nociceptive. They are orally administered AV1066 5 mg/kg/day. They are examined at days 3, 7, 16, and 28. At each visit the patient is assessed for pain control compared with the previous visit.
A patient presents with a second […]. They are complaining of significant pain. The patient's pain is classified according to the International Association for the Study of Pain as nociceptive. They are orally administered the phosphate salt of AV1066 10 mg/kg daily in two doses. They are examined at 12 hours, and daily thereafter for 4 days. At each visit the patient is assessed for pain control compared with the previous visit.
A patient presents with a benign tumor mass compressing their left shoulder causing movement pain. The patient's pain is classified according to the International Association for the Study of Pain as nociceptive. They are orally administered the sodium salt of AV1066 30 mg/kg/day in two doses. They are examined daily thereafter at 3, 7, and 28 days. At each visit the patient is assessed for pain control compared with the previous visit. […]

[3] = tested on: model of TNBS-induced chronic colonic hypersensitivity in rats; assay: TNBS-induced chronic colonic hypersensitivity, colorectal balloon distension threshold; settings: for % antihypersensitivity activity / Colonic distension threshold (mmHg): TNBS 50 mg/kg
[4] = tested on: model of peripheral mononeuropathy (Bennett model) in rats; settings: typical values given for comparison; cited from earlier work
[5] = injured paw, TO (pre-drug), 10 mg/kg p.o.
[6] = injured paw, TO (pre-drug), 30 mg/kg p.o.
[7] = injured paw, TO (pre-drug), 100 mg/kg p.o.
[8] = injured paw, TO + 30 min, 10 mg/kg p.o.
[9] = injured paw, TO + 30 min, 30 mg/kg p.o.
[10] = injured paw, TO + 30 min, 100 mg/kg p.o.
[11] = injured paw, TO + 60 min, 10 mg/kg p.o.
[12] = injured paw, TO + 60 min, 30 mg/kg p.o.
[13] = injured paw, TO + 60 min, 100 mg/kg p.o.
[14] = injured paw, TO + 120 min, 10 mg/kg p.o.
[15] = injured paw, TO + 120 min, 30 mg/kg p.o.
[16] = injured paw, TO + 120 min, 100 mg/kg p.o.
[17] = injured paw, TO + 180 min, 10 mg/kg p.o.
[18] = injured paw, TO + 180 min, 30 mg/kg p.o.
[19] = injured paw, TO + 180 min, 100 mg/kg p.o.
[20] = single administration 10, 30, 100 mg/kg PO
[21] = injured paw, TO (pre-drug), 3 mg/kg s.c.
[22] = injured paw, TO + 30 min, 3 mg/kg s.c.
[23] = injured paw, TO + 60 min, 3 mg/kg s.c.
[24] = injured paw, TO + 120 min, 3 mg/kg s.c.
[25] = injured paw, TO + 180 min, 3 mg/kg s.c.

SMILES: CN1CCN(CCCc2ccc(C(c3ccccc3)C34CC5CC(CC(C5)C3)C4)cc2)CC1 [AV1066, 1-(3-4(((1R,3S,5S)-adamantan-1-yl)(phenyl)methyl)propyl)-4-methylpiperazine]
- difference in the nociceptive threshold vs. vehicle ([1]; 30 mg/kg dose, T=+30 minutes): 116 g
- anti-hyperalgesic effect ([1]; 30 mg/kg dose, T=+30 minutes, vs vehicle): 59%
- untoward effects ([1]; CCI study, 10, 30, 100 mg/kg PO): No untoward effects
- Nociceptive threshold ([1]; control paw, TO, 10 mg/kg p.o.): 366 ± 11.9 g
- Nociceptive threshold ([1]; control paw, TO, 30 mg/kg p.o.): 352 ± 15.8 g
- Nociceptive threshold ([1]; control paw, TO, 100 mg/kg p.o.): 354 ± 9.9 g
- % variation vs control paw [1, 5]: −54%
- % variation vs vehicle-treated group [1, 5]: −15%
- Nociceptive threshold [1, 5]: 170 ± 11.6 g
- % variation vs control paw [1, 6]: −45%
- % variation vs vehicle-treated group [1, 6]: −4%
- Nociceptive threshold [1, 6]: 192 ± 8.5 g
- % variation vs control paw [1, 7]: −49%
- % variation vs vehicle-treated group [1, 7]: −9%
- Nociceptive threshold [1, 7]: 182 ± 9.6 g
- % variation vs control paw [1, 8]: −32%
- % variation vs pre-drug threshold [1, 8]: 38%
- % variation vs vehicle-treated group [1, 8]: 19%
- Nociceptive threshold [1, 8]: 234 ± 11.2 g
- % variation vs control paw [1, 9]: −19%
- % variation vs pre-drug threshold [1, 9]: 63%
- % variation vs vehicle-treated group [1, 9]: 59%
- Nociceptive threshold ([1]; injured paw, TO + 30 min, 30 mg/kg p.o., 30 mg/kg): 312 g and 312 ± 15.5 g
- % variation vs control paw [1, 10]: −20%
- % variation vs pre-drug threshold [1, 10]: 64%
- % variation vs vehicle-treated group [1, 10]: 52%
- Nociceptive threshold [1, 10]: 298 ± 21.4 g
- % variation vs control paw [1, 11]: −29%
- % variation vs pre-drug threshold [1, 11]: 39%
- % variation vs vehicle-treated group [1, 11]: 6%
- Nociceptive threshold [1, 11]: 236 ± 11.5 g
- % variation vs control paw [1, 12]: −16%
- % variation vs pre-drug threshold [1, 12]: 43%
- % variation vs vehicle-treated group [1, 12]: 23%
- Nociceptive threshold [1, 12]: 274 ± 14.3 g
- % variation vs control paw [1, 13]: −11%
- % variation vs pre-drug threshold [1, 13]: 60%
- % variation vs vehicle-treated group [1, 13]: 32%
- Nociceptive threshold [1, 13]: 292 ± 17.2 g
- % variation vs control paw [1, 14]: −30%
- % variation vs pm-drug threshold [1, 14]: 27%
- % variation vs vehicle-treated group [1, 14]: 6%
- Nociceptive threshold [1, 14]: 216 ± 12.6 g
- % variation vs control paw [1, 15]: −21%
- % variation vs pm-drug threshold [1, 15]: 41%
- % variation vs vehicle-treated group [1, 15]: 32%
- Nociceptive threshold [1, 15]: 270 ± 11.6 g
- % variation vs control paw [1, 16]: −23%
- % variation vs pm-drug threshold [1, 16]: 44%
- % variation vs vehicle-treated group [1, 16]: 28%
- Nociceptive threshold [1, 16]: 262 ± 12.5 g
- % variation vs control paw [1, 17]: −23%
- % variation vs pre-drug threshold [1, 17]: 38%
- % variation vs vehicle-treated group [1, 17]: 9%
- Nociceptive threshold [1, 17]: 234 ± 15.5 g
- % variation vs control paw [1, 18]: −36%
- % variation vs pre-drug threshold [1, 18]: 1%
- % variation vs vehicle-treated group [1, 18]: −9%
- Nociceptive threshold [1, 18]: 194 ± 13.0 g
- % variation vs control paw [1, 19]: −27%
- % variation vs pre-drug threshold [1, 19]: 16%
- % variation vs vehicle-treated group [1, 19]: −1%
- Nociceptive threshold [1, 19]: 212 ± 15.8 g
- effect on nociceptive (pain) threshold of the affected paw, in words [1, 20]: dose-dependently restores the pain threshold lowered by chronic constriction injury
- time at which efficacy was apparent post-dose [1, 20]: 30 min
- time for which efficacy remained significant [1, 20]: 2 h
- max effect ([1]; whatever the dose): 59%
- patient-reported pain control [2]: tolerable and improved at each visit
- % antihypersensitivity activity ([3]; 10 mg/kg p.o.): 26%
- Colonic distension threshold (mmHg) ([3]; 10 mg/kg p.o.): 30.3 ± 1.3 mmHg
- % antihypersensitivity activity ([3]; 30 mg/kg p.o.): 71%
- Colonic distension threshold (mmHg) ([3]; 30 mg/kg p.o.): 36.4 ± 1.3 mmHg
- untoward effects ([3]; TNBS study, single PO administration): No untoward effects

SMILES: CN1CC[C@]23c4c5ccc(O)c4O[C@H]2[C@@H](O)C=C[C@H]3[C@H]1C5.Cl [Morphine HCl, reference compound]
- Nociceptive threshold ([1]; control paw, TO, 3 mg/kg s.c.): 349 ± 11.1 g
- % variation vs control paw [1, 21]: −47%
- % variation vs vehicle-treated group [1, 21]: −8%
- Nociceptive threshold [1, 21]: 184 ± 11.9 g
- % variation vs control paw [1, 22]: −11%
- % variation vs pre-drug threshold [1, 22]: 212%
- % variation vs vehicle-treated group [1, 22]: 194%
- Nociceptive threshold [1, 22]: 576 ± 46.8 g
- % variation vs control paw [1, 23]: −6%
- % variation vs pre-drug threshold [1, 23]: 212%
- % variation vs vehicle-treated group [1, 23]: 159%
- Nociceptive threshold [1, 23]: 576 ± 28.8 g
- % variation vs control paw [1, 24]: −11%
- % variation vs pm-drug threshold [1, 24]: 110%
- % variation vs vehicle-treated group [1, 24]: 90%
- Nociceptive threshold [1, 24]: 387 ± 40.4 g
- % variation vs control paw [1, 25]: −19%
- % variation vs pre-drug threshold [1, 25]: 31%
- % variation vs vehicle-treated group [1, 25]: 13%
- Nociceptive threshold [1, 25]: 242 ± 19.0 g

SMILES: NCC1(CC(=O)O)CCCCC1 [gabapentin]
- anti-hyperalgesic effect, typical range of non-opioid treatments [4]: 40-50%

— patent US10933062B2, “Analgesic therapeutic and method, 1-(3-4(((1 R,3S,5S)-adamantan-1-yl)(phenyl)methyl)propyl)-4-methylpiperazine and salts thereof” (ANAVEX LIFE SCIENCES CORP., priority 2016, dated 2021)
